Results reported in patent US20250320206A1, “STAT6 DEGRADERS” (Gilead Sciences, Inc., priority 2024, published 2025).
pEC50: −log10 of the molar value.

Experiments:
STAT6 = molecular target: T1, STAT6 (Homo sapiens, UniProt P42226); assay: Stat6 Degrader Assay (HiBiT based, HeLa LgBiT clone 4.14); type: cell-based; settings: HeLa LgBiT clone 4.14 HiBiT-STAT6, 4-24 h incubation; values given for compounds with >80% Emax; geometric mean; read-out: STAT6 degradation DC50
T1 construct: These cells express endogenous STAT6; host or cells: HeLa LgBiT clone 4.14
T1 sequence (P42226 1-847): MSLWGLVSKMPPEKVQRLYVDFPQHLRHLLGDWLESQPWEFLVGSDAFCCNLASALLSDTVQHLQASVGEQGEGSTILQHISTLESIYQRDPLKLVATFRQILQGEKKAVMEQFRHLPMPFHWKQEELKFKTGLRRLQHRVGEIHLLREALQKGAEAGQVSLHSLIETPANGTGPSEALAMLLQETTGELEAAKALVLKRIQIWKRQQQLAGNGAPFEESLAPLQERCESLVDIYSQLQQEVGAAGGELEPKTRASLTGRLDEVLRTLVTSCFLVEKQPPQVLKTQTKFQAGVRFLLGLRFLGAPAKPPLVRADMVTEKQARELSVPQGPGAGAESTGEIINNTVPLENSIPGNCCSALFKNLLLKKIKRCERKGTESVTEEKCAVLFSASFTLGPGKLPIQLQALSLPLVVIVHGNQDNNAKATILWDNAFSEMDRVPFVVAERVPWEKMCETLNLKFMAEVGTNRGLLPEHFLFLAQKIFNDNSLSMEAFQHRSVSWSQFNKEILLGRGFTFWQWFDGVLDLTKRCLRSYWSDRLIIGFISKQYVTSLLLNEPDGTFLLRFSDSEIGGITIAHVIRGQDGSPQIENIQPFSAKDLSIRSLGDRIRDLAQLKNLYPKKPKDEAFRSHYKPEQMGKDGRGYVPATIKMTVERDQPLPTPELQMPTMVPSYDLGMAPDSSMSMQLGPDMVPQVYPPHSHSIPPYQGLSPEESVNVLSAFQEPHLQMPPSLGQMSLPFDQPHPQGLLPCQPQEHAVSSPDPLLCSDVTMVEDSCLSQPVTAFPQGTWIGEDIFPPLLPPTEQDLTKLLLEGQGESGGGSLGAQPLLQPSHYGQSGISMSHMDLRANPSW
Procedure, shortened: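 Luminescence from HiBiT-STAT6 complementing stably expressed LgBiT in HeLa clone 4.14 reports remaining STAT6 protein. Cells (5000/well) exposed to compound for 4-24 h at 37° C; read 0.5 h after Nano-Glo addition. 100% degradation window set with 50 μM terfenadine; percent degradation plotted against concentration.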

[1] = test system: Eotaxin-3 release in human whole blood stimulated with IL-4; assay: Human Whole Blood Eotaxin-3 Assay (IL-4 stimulated eotaxin-3 release); type: cell-based; settings: IL-4 stimulation, 48 h, values given for compounds with >80% Emax, geometric mean
Procedure, shortened: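 Eotaxin-3 (CCL26) release measured by MSD kit in plasma supernatant after 48 h IL-4 stimulation ([…]) of human whole blood. Compounds added in triplicate 4-fold dilutions 2 h before stimulation; 0.5% DMSO final, 37° C, 5% CO2.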

Structure (SMILES)	DC50 (STAT6)	pEC50 [1]
CNc1ccn(-c2ccnc3c2cc(CN2CCC(c4c(F)cc(C(=O)N5CCC(CN6CCN(Cc7ccc8c(c7)n(C)c(=O)n8C7CCC(=O)NC7=O)C[C@@H]6C)CC5)cc4F)CC2)n3C)c(=O)c1 (stereo partly drawn) [Example 3u19, 3-(5-(((S)-4-((1-(3,5-difluoro-4-(1-((1-methyl-4-(4-(methylamino)-2-oxopyridin-1 (2H)-yl)-1H-pyrrolo[2,3-b]pyridin-2-yl)methyl)piperidin-4-yl)benzoyl)piperidin-4-yl)methyl)-3-methyl-piperazin-1-yl)methyl)-3-methyl-2-oxo-2,3-dihydro-1H-benzo[d]imidazol-1-yl)piperidine-2,6-dione]	0.7 nM	9.52
CNc1cc(=O)n(-c2ccnc3c2cc([C@H](C)N2CC=C(c4c(C)cc(C(=O)N5CC=C(CC6CCN(c7ccc8c(c7)C7(CC7)C(=O)N8C7CCC(=O)NC7=O)CC6)CC5)cc4F)CC2)n3C)cc1F (stereo partly drawn) [Example 3u20, 3-(5′-(4-((1-(3-fluoro-4-(1-((S)-1-(4-(5-fluoro-4-(methylamino)-2-oxopyridin-1 (2H)-yl)-1-methyl-1H-pyrrolo[2,3-b]pyridin-2-yl)ethyl)-1,2,3,6-tetrahydropyridin-4-yl)-5-methyl-benzoyl)-1,2,3,6-tetrahydropyridin-4-yl)methyl)piperidin-1-yl)-2′-oxospiro[cyclopropane-1,3′-indolin]-1′-yl)piperidine-2,6-dione]	4.7 nM	7.93
Cc1cc(C(=O)N2CCC(CN3CCN(Cc4ccc5c(c4)n(C)c(=O)n5C4CCC(=O)NC4=O)CC3)CC2)cc(F)c1C1=CCN([C@@H](C)c2cc3c(-n4ccc5c(c4=O)CCN5)ccnc3n2C)CC1 (stereo partly drawn) [Example 3u22, 3-(5-((4-((1-(3-fluoro-5-methyl-4-(1-((S)-1-(1-methyl-4-(4-oxo-1,2,3,4-tetrahydro-5H-pyrrolo[3,2-c]pyridin-5-yl)-1H-pyrrolo[2,3-b]pyridin-2-yl)ethyl)-1,2,3,6-tetrahydropyridin-4-yl)-benzoyl)piperidin-4-yl)methyl)piperazin-1-yl)methyl)-3-methyl-2-oxo-2,3-dihydro-1H-benzo[d]-imidazol-1-yl)piperidine-2,6-dione]	0.7 nM	9.10
CNc1cc(=O)n(-c2ccnc3c2cc([C@H](C)N2CCC(c4ccc(C(=O)N5CCC(CN6CCN(Cc7ccc8c(c7)C7(CC7)C(=O)N8C7CCC(=O)NC7=O)C[C@@H]6C)CC5)cc4)CC2)n3C)cc1F (stereo partly drawn) [Example 3u36, 3-(5′-(((S)-4-((1-(4-(1-((S)-1-(4-(5-fluoro-4-(methylamino)-2-oxopyridin-1 (2H)-yl)-1-methyl-1H-pyrrolo[2,3-b]pyridin-2-yl)ethyl)piperidin-4-yl)benzoyl)piperidin-4-yl)methyl)-3-methylpiperazin-1-yl)methyl)-2′-oxospiro[cyclopropane-1,3′-indolin]-1′-yl)piperidine-2,6-dione]	1.4 nM	8.48
CNc1ccn(-c2ccnc3c2cc(CN2CCC(c4c(F)cc(C(=O)N5CCC(CN6CCN(Cc7cc8c(cc7F)N(C7CCC(=O)NC7=O)C(=O)C87CC7)CC6)CC5)cc4F)CC2)n3C)c(=O)c1 (stereo not drawn) [Example 3u42, 3-(5′-((4-((1-(3,5-difluoro-4-(1-((1-methyl-4-(4-(methylamino)-2-oxopyridin-1 (2H)-yl)-1H-pyrrolo[2,3-b]pyridin-2-yl)methyl)piperidin-4-yl)benzoyl)piperidin-4-yl)methyl)piperazin-1-yl)methyl)-6′-fluoro-2′-oxospiro[cyclopropane-1,3′-indolin]-1′-yl)piperidine-2,6-dione]	13.2 nM	7.86
CNc1cc(=O)n(-c2ccnc3c2cc(CN2CCC(c4c(F)cc(C(=O)N5CCC(CN6CCN(Cc7ccc8c(c7)C(C)(C)C(=O)N8C7CCC(=O)NC7=O)C[C@@H]6C)CC5)cc4F)CC2)n3C)cc1F (stereo partly drawn) [Example 3u48, 3-(5-(((S)-4-((1-(3,5-difluoro-4-(1-((4-(5-fluoro-4-(methylamino)-2-oxopyridin-1 (2H)-yl)-1-methyl-1H-pyrrolo[2,3-b]pyridin-2-yl)methyl)piperidin-4-yl)benzoyl)piperidin-4-yl)methyl)-3-methylpiperazin-1-yl)methyl)-3,3-dimethyl-2-oxoindolin-1-yl)piperidine-2,6-dione]	11.2 nM	8.11

Further compounds by falling DC50 (STAT6), results first:

DC50 (STAT6)	pEC50 [1]	Structure (SMILES)
9.6 nM	8.26	CNc1ccn(-c2ccnc3c2cc([C@H](C)N2CC=C(c4c(C)cc(C(=O)N(C)C5CCN(C6CCN(Cc7ccc8c(c7)n(C)c(=O)n8C7CCC(=O)NC7=O)CC6)CC5)cc4F)CC2)n3C)c(=O)c1 (stereo partly drawn) [Example 3u35, N-(1′-((1-(2,6-dioxopiperidin-3-yl)-3-methyl-2-oxo-2,3-dihydro-1H-benzo[d]imidazol-5-yl)methyl)-[1,4′-bipiperidin]-4-yl)-3-fluoro-N,5-dimethyl-4-(1-((S)-1-(1-methyl-4-(4-(methylamino)-2-oxopyridin-1 (2H)-yl)-1H-pyrrolo[2,3-b]pyridin-2-yl)ethyl)-1,2,3,6-tetrahydropyridin-4-yl)benzamide]
4.3 nM	8.64	Cc1cc(C(=O)N2CCC(CN3CCN(Cc4ccc5c(c4)n(C)c(=O)n5C4CCC(=O)NC4=O)C[C@@H]3C)CC2)cc(F)c1C1CCN(Cc2cc3c(-n4ccc5c(c4=O)CCN5)ccnc3n2C)CC1 (stereo partly drawn) [Example 3u39, 3-(5-(((S)-4-((1-(3-fluoro-5-methyl-4-(1-((1-methyl-4-(4-oxo-1,2,3,4-tetrahydro-5H-pyrrolo[3,2-c]pyridin-5-yl)-1H-pyrrolo[2,3-b]pyridin-2-yl)methyl)piperidin-4-yl)benzoyl)piperidin-4-yl)methyl)-3-methylpiperazin-1-yl)methyl)-3-methyl-2-oxo-2,3-dihydro-1H-benzo[d]imidazol-1-yl)piperidine-2,6-dione]
3.9 nM	8.35	CNc1ccn(-c2ccnc3c2cc(CN2CC=C(c4c(F)cc(C(=O)N5CCC(CN6CCN(Cc7ccc8c(c7)C(C)(C)C(=O)N8C7CCC(=O)NC7=O)C[C@@H]6C)CC5)cc4F)CC2)n3C)c(=O)c1 (stereo partly drawn) [Example 3u45, 3-(5-(((S)-4-((1-(3,5-difluoro-4-(1-((1-methyl-4-(4-(methylamino)-2-oxopyridin-1 (2H)-yl)-1H-pyrrolo[2,3-b]pyridin-2-yl)methyl)-1,2,3,6-tetrahydropyridin-4-yl)benzoyl)piperidin-4-yl)methyl)-3-methylpiperazin-1-yl)methyl)-3,3-dimethyl-2-oxoindolin-1-yl)piperidine-2,6-dione]
2.9 nM	8.47	CNc1cc(=O)n(-c2ccnc3c2cc(CN2CCC(c4c(F)cc(C(=O)N5CCC(CN6CCN(Cc7ccc8c(c7)n(C)c(=O)n8C7CCC(=O)NC7=O)CC6)CC5)cc4F)CC2)n3C)cc1F (stereo not drawn) [Example 3u26, 3-(5-((4-((1-(3,5-difluoro-4-(1-((4-(5-fluoro-4-(methylamino)-2-oxopyridin-1 (2H)-yl)-1-methyl-1H-pyrrolo[2,3-b]pyridin-2-yl)methyl)piperidin-4-yl)benzoyl)piperidin-4-yl)methyl)piperazin-1-yl)methyl)-3-methyl-2-oxo-2,3-dihydro-1H-benzo[d]imidazol-1-yl)piperidine-2,6-dione]
1.7 nM	9.05	CNc1ccn(-c2ccnc3c2cc(CN2CCC(c4c(F)cc(C(=O)N5CCC(CN6CCN(Cc7ccc8c(c7)n(C)c(=O)n8C7CCC(=O)NC7=O)CC6)CC5)cc4F)CC2)n3C)c(=O)c1 (stereo not drawn) [Example 3u29, 3-(5-((4-((1-(3,5-difluoro-4-(1-((1-methyl-4-(4-(methylamino)-2-oxopyridin-1 (2H)-yl)-1H-pyrrolo[2,3-b]pyridin-2-yl)methyl)piperidin-4-yl)benzoyl)piperidin-4-yl)methyl)piperazin-1-yl)methyl)-3-methyl-2-oxo-2,3-dihydro-1H-benzo[d]imidazol-1-yl)piperidine-2,6-dione]
0.2 nM	9.52	CNc1ccn(-c2ccnc3c2cc([C@H](C)N2CC=C(c4c(C)cc(C(=O)N5CCC(CN6CCN(Cc7ccc8c(c7)n(C)c(=O)n8C7CCC(=O)NC7=O)C[C@@H]6C)CC5)cc4F)CC2)n3C)c(=O)c1 (stereo partly drawn) [Example 3u32, 3-(5-(((S)-4-((1-(3-fluoro-5-methyl-4-(1-((S)-1-(1-methyl-4-(4-(methylamino)-2-oxopyridin-1 (2H)-yl)-1H-pyrrolo[2,3-b]pyridin-2-yl)ethyl)-1,2,3,6-tetrahydropyridin-4-yl)benzoyl)-piperidin-4-yl)methyl)-3-methylpiperazin-1-yl)methyl)-3-methyl-2-oxo-2,3-dihydro-1H-benzo[d]-imidazol-1-yl)piperidine-2,6-dione]
